These results are taken from EP0325048A1, “Imidazo- and pyrimido-quinoline, naphthyridine and pyridopyrazine compounds” (SCHERING CORPORATION, priority 1987, dated 1989).

Where two headings read alike, the source gives them in different places.

The test system of assay [1] is reverse passive Arthus reaction in the pleural cavity of rats. As to the kind of experiment: reverse passive Arthus reaction in the pleural cavity of rats (pleurisy). As to conditions: Rattus norvegicus, po; for inhibition in vivo at 3.125 mg/kg: 3.125 mg/kg p.o. (Table 4); for inhibition in vivo at 6.25 mg/kg: 6.25 mg/kg p.o. (Table 4); for inhibition in vivo at 12.5 mg/kg: 12.5 mg/kg p.o. (Table 4); for inhibition in vivo at 50 mg/kg: 50 mg/kg p.o. (Table 4); for inhibition in vivo at 1 mg/kg: 1 mg/kg p.o.; for inhibition in vivo at 3 mg/kg: 3 mg/kg p.o.; for inhibition in vivo at 9 mg/kg: 9 mg/kg p.o. The class given is in vivo, Male Lewis rats. As for the experimental part:
Another procedure for testing for acute antiinflammatory activity measures the reverse passive Arthus reaction in the pleural cavity of rats.
Male Lewis rats weighing 180-220 grams were obtained from Charles River Breeding Laboratories, Wilmington, MA and permitted food and water ad libitum. Rooms housing the animals were temperature controlled with a 12 hour light and dark cycle.
Groups of five rats were dosed with drug 30 minutes prior to sensitization with BSA (1 mg/0.2 ml saline). Thirty minutes later the animals were challenged with the IgG fraction of a rabbit anti-bovine serum albumi antibodies (0.1 mg antibody protein per 0.2 ml saline Cooper Biomedical, Malvern, PA) in the pleural cavity. Four hours after challenge, the rats were sacrificed and the exudate harvested from the pleural cavity. The volume of the exudate was measured and the total number of cells determined with a Coulter Counter. [formula]
The results measured as percent inhibition of the infiltration of polymorphonuclear leucocytes (PMNs) and of edena are set forth below in Table 3.

Assay [2] concerns anaphylactic bronchospasm in sensitized guinea pigs. Put plainly: anaphylactic bronchospasm in sensitized guinea pigs (modified Konzett-Rossler), antigen-induced SRS-A mediated bronchoconstriction. To be noted: for % Inhibition of Broncho-constriction: 2 hours before antigen challenge, inhibition of increase in intratracheal pressure; for % Inhibition of Bronchoconstriction: comparison compound (Table 2). The class given is in vivo. The procedure: The anti-allergy method of this invention is identified by tests which measure a compound's inhibition of anaphylactic bronchospasm in sensitized guinea pigs having antigen-induced SRS-A mediated bronchoconstriction. Allergic bronchospasm was measured in actively sensitized guinea pigs by a modification of the procedure of Konzett and Rossler, Arch. Exptl. Pathol. […] Male Hartley guinea pigs were sensitized with 5 mg ovalbumin injected ip and 5 mg injected sc in 1 ml saline on day 1 and 5mg ovalbumin injected ip on day 4. The sensitized animals were used 3-4 weeks later. To measure anaphylactic bronchospasm, sensitized guinea pigs were fasted overnight and the following morning were anesthetized with 0.9 ml/kg ip of dialurethane. The trachea and jugular vein were cannulated and the animals were ventilated by a Harvard rodent respirator. A side arm to the tracheal cannula was connected to a Harvard pressure transducer to obtain a continuous measure of intratracheal pressure. An increase in intratracheal pressure was taken as a measure of bronchoconstriction. Each guinea pig was injected iv with 1mg/kg propranolol, 5 mg/kg indomethacin and 2 mg/kg mepyramine given together in a volume of 1 ml/kg. Fifteen minutes later, the animals were challenged with antigen (0.5 per cent ovalbumin) delivered as an aerosol generated from a DeVilbiss Model 65 ultrasonic nebulizer and delivered through the tracheal cannula for 30 seconds. Bronchoconstriction was measured as the peak increase in intratracheal pressure occurring within 15 minutes after antigen challenge.

The test system of assay [3] is Reversed Passive Arthus Reaction (RPAR)-PAW. As to the kind of experiment: Reversed Passive Arthus Reaction (RPAR)-PAW technique. The class given is in vivo, male Lewis rats. To be noted: 25 mg/kg (p.o.); paw volume at 2 hours post-challenge. As for the experimental part:
The compounds of this invention are also useful for the treatment of inflammation; thus, they are useful for the treatment of: arthritis, bursitis, tendonitis, gout and other inflammatory conditions. […] The potency of the compounds is determined using indomethacin as the standard. On the basis of the test results, an oral dosage range of about 5 milligrams per kilogram of body weight per day to about 50 milligrams per kilogram of body weight per day in divided doses taken at about 4 hour intervals is recommended, again with any of the conventional modes of administration for treatment of inflammation being suitable.
Male Lewis inbred albino rats weighing 180-220 grams obtained from Charles River Breeding Laboratories are used in these experiments. The rats are housed 3 animals/cage and food and water are allowed ad libitum. The animals are numbered 1-3 in each cage and color marked for identification purposes.
All reagents and drugs are prepared just prior to the study. […]
Groups of animals (6/group) are dosed with drug in MC by gavage one hour prior to sensitization with BSA. […] The volume of mercury displaced is converted to weight and recorded. […] Paw volumes are also recorded with a plethysmograph during the development of the inflammation at 2 hours post-challenge.

[4] abbreviates: 4 h, read-out: Pleurisy (% Inhibition) Edema.
[5] abbreviates: 4 h, read-out: Pleurisy (% Inhibition) PMNs.
[6] abbreviates: 25 mg/kg p.o., exudate 4 hours after challenge, read-out: Pleurisy (% Inhibition) Edema.
Where [7] appears, read: 25 mg/kg p.o., exudate 4 hours after challenge, read-out: Pleurisy (% Inhibition) PMNs.

Turning to `C[C@]12C=CC(=O)C=C1CC[C@@H]1[C@@H]2C(=O)C[C@@]2(C)[C@H]1CC[C@]2(O)C(=O)CO` [Prednisone, prednisone, reference compound], in assay [1] (setting [4]), the inhibition in vivo at 3.125 mg/kg was found to be 2%, the inhibition in vivo at 6.25 mg/kg is 17%, the inhibition in vivo at 12.5 mg/kg is 27% and the inhibition in vivo at 50 mg/kg worked out at 58%. In assay [1] (setting [5]), the inhibition in vivo at 3.125 mg/kg amounted to 7%, the inhibition in vivo at 6.25 mg/kg turned out to be 16%, the inhibition in vivo at 12.5 mg/kg is 20% and the inhibition in vivo at 50 mg/kg is 42%. For the same molecule, the inhibition in vivo at 25 mg/kg in assay [1] (4 h, 25 mg/kg p.o. (Table 4), read-out: Pleurisy (% Inhibition) Edema) was determined as 44%. The inhibition in vivo at 25 mg/kg in assay [1] (4 h, 25 mg/kg p.o. (Table 4), read-out: Pleurisy (% Inhibition) PMNs) came out at 25%.
Take `CN1CCn2c1c(-c1ccccc1)c1ncccc1c2=O` [R^3=CH3, R^4=phenyl, n=2, 2,3-dihydro-1-methyl-10-phenylimidazo[1,2-g][1,6]naphthyridin-5(1H)-one]: the inhibition in vivo at 25 mg/kg in assay [1] (setting [6]) worked out at 56%; in assay [1] (setting [7]), 69%.
As for `O=c1c2cccnc2c(-c2cccc(Cl)c2)c2n1CCCN2` [R^3=H, R^4=3-chloro phenyl, n=3, 11-(3-chlorophenyl)-1,2,3,4-tetrahydro-6H-pyrimido[1,2-g][1,6]naphthyridin-6-one], the “% Inhibition of Broncho-constriction” value in assay [2] (5 mg/kg p.o.) is listed as 54%. Further, the figures for the inhibition in vivo at 25 mg/kg in assay [1] (setting [6]) and in assay [1] (setting [7]) were 76% and 82%, respectively.
In the case of `O=c1c2cccnc2c(-c2cccc(Cl)c2)c2n1CCN2` [R^3=H, R^4=3-chloro-phenyl, n=2, 10-(3-chlorophenyl)-2,3-dihydroimidazo[1,2-g][1,6]naphthyridin-5(1H)-one], the “% Inhibition of Broncho-constriction” value in assay [2] (5 mg/kg p.o.) is listed as 43%.
For `COc1cccc(-c2c3n(c(=O)c4cccnc24)CCN3)c1` [R^3=H, R^4=3-methoxy-phenyl, n=2, 2,3-dihydro-10-(3-methoxyphenyl)imidazo-[1,2-g][1,6]naphthyridin-5(1H)-one], the “% Inhibition of Broncho-constriction” value in assay [2] (5 mg/kg p.o.) amounted to 61%. The inhibition in vivo at 25 mg/kg in assay [1] (setting [6]) is 69%; in assay [1] (setting [7]), 79%.
The matching figures for `O=c1c2cccnc2c(-c2ccc(Cl)cc2)c2n1CCN2` [R^3=H, R^4=4-chloro-phenyl, n=2, 10-(4-chlorophenyl)-2,3-dihydro-imidazo[1,2-g][1,6]naphthyridin-5(1H)-one]: 11%, 92% and 95%.
Consider `COc1ccc(-c2c3n(c(=O)c4cccnc24)CCN3)cc1` [R^3=H, R^4=4-methoxy-phenyl, n=2, 2,3-dihydro-10-(4-methoxyphenyl)imidazo-[1,2-g][1,6]naphthyridin-5(1H)-one], for which the “% Inhibition of Broncho-constriction” value in assay [2] (10 mg/kg p.o.) is 8%. Further, the inhibition in vivo at 25 mg/kg in assay [1] (setting [6]) came to 42%; in assay [1] (setting [7]) it was 49%.
On to `Cc1ccc(-c2c3n(c(=O)c4cccnc24)CCN3)cc1` [R^3=H, R^4=4-methyl phenyl, n=2, 2,3-dihydro-10(4-methylphenyl)imidazo-[1,2-g][1,6]naphthyridin-5(1H)-one], for which the inhibition in assay [3] is 42%. Moreover, in assay [2] (5 mg/kg p.o.), the “% Inhibition of Broncho-constriction” value stood at 1%. The results for the inhibition in vivo at 25 mg/kg in assay [1] (setting [6]) and in assay [1] (setting [7]) were 42% and 53%, respectively.
As to `O=c1c2cccnc2c(-c2cccc3ccccc23)c2n1CCN2` [R^3=H, R^4=naphthyl, n=2, 2,3-dihydro-10-(1-naphthalenyl)imidazo-[1,2-g][1,6]naphthyridin-5(1H)-one], the results for the inhibition in vivo at 25 mg/kg in assay [1] (setting [6]) and in assay [1] (setting [7]) were 28% and 50%, respectively.
In the case of `O=c1c2cccnc2c(-c2ccccc2)c2n1CCN2` [R^3=H, R^4=phenyl, n=2, 2,3-dihydro-10-phenylimidazo[1,2-g][1,6]-naphthyridin-5(1H)-one], in assay [3], the inhibition is reported as 92%. In addition, the “% Inhibition of Broncho-constriction” value in assay [2] (10 mg/kg p.o.) is recorded as 16%. The inhibition in vivo at 1 mg/kg in assay [1] (setting [4]) stood at 9%; in assay [1] (setting [5]) it was 3%. The inhibition in vivo at 3 mg/kg was determined as 25% in assay [1] (setting [4]) and 28% in assay [1] (setting [5]). Besides, the inhibition in vivo at 9 mg/kg was determined as 34% in assay [1] (setting [4]) and 54% in assay [1] (setting [5]). Moreover, the inhibition in vivo at 25 mg/kg in assay [1] (setting [6]) is 55%; in assay [1] (setting [7]), 90%.
Turning to `Cn1c(=O)c2[nH]cnc2n(C)c1=O` [aminophylline, reference compound], the “% Inhibition of Bronchoconstriction” value in assay [2] (18 mg/kg p.o.) is on record as 21%; in assay [2] (53 mg/kg p.o.), 58%.
`C[C@@H]1C[C@H]2[C@@H]3CCC4=CC(=O)C=C[C@]4(C)[C@@]3(F)[C@@H](O)C[C@]2(C)[C@@]1(O)C(=O)CO` [dexamethasone, reference compound]: the “% Inhibition of Bronchoconstriction” value in assay [2] (3 mg/kg p.o.) is given as 38%; in assay [2] (10 mg/kg p.o.), 46%.
For the molecule `CC(C)(C)c1ccc(C(O)CCCN2CCC(C(O)(c3ccccc3)c3ccccc3)CC2)cc1` (stereo not shown) [terfenadine, reference compound], the “% Inhibition of Bronchoconstriction” value in assay [2] (30 mg/kg p.o.) was found to be 5%.

One may read the inhibition as the relative decrease from the control value, in per cent. Low values mean a weak effect, high ones a strong effect.
